Results from the NIST ThermoML archive (doi:10.1021/je049540s).
± gives the expanded uncertainty stated by the source.

Columns and labels:
[1] = xn = mol fraction of the nth substance listed; conditions: 308.15 K, 101.3 kPa, Liquid
[2] = activity coefficient (dimensionless); of the first substance listed, at infinite dilution; xn = mol fraction of the nth substance listed; conditions: 101.3 kPa, Liquid, Differential ebulliometry, x1 = 0
[3] = 308.15 K; 101.3 kPa; Liquid
[4] = refractive index (Na D-line) (dimensionless); conditions: 101.33 kPa, Liquid, Standard Abbe refractometry

SMILES: Cc1ccccc1O [2-methylphenol] + CCCCCCCCCC
- mass density ([1]; x1 = 0.0637): 730.49 ± 0.42 kg/m3
- mass density ([1]; x1 = 0.0908): 735.2 ± 0.42 kg/m3
- mass density ([1]; x1 = 0.162): 748.33 ± 0.42 kg/m3
- mass density ([1]; x1 = 0.2086): 757.57 ± 0.42 kg/m3
- mass density ([1]; x1 = 0.272): 770.9 ± 0.41 kg/m3
- mass density ([1]; x1 = 0.3186): 781.32 ± 0.42 kg/m3
- mass density ([1]; x1 = 0.4014): 801.21 ± 0.42 kg/m3
- mass density ([1]; x1 = 0.4707): 819.47 ± 0.43 kg/m3
- mass density ([1]; x1 = 0.529): 836.06 ± 0.43 kg/m3
- mass density ([1]; x1 = 0.6014): 858.4 ± 0.43 kg/m3
- mass density ([1]; x1 = 0.6596): 878.02 ± 0.43 kg/m3
- mass density ([1]; x1 = 0.7379): 906.95 ± 0.43 kg/m3
- mass density ([1]; x1 = 0.7876): 927.04 ± 0.43 kg/m3
- mass density ([1]; x1 = 0.8714): 964.58 ± 0.44 kg/m3
- mass density ([1]; x1 = 0.9348): 996.28 ± 0.45 kg/m3
- mass density ([1]; x1 = 0.9617): 1010.78 ± 0.47 kg/m3
- mass density ([1]; x1 = 1): 1032.73 ± 0.49 kg/m3
- activity coefficient ([2]; 393.15 K): 4.15 ± 0.58
- activity coefficient ([2]; 413.15 K): 3.49 ± 0.49
- activity coefficient ([2]; 433.15 K): 3.04 ± 0.43

SMILES: CCCCCCCCCCCC [dodecane]
- mass density [3]: 738.63 ± 0.36 kg/m3
- refractive index ([4]; 293.15 K): 1.421 ± 0.0007

SMILES: CCCCCCCCCCC [undecane] + Cc1ccccc1O
- mass density ([1]; x2 = 0): 729.13 ± 0.36 kg/m3
- mass density ([1]; x2 = 0.0367): 734.21 ± 0.35 kg/m3
- mass density ([1]; x2 = 0.0684): 738.92 ± 0.35 kg/m3
- mass density ([1]; x2 = 0.0746): 739.92 ± 0.35 kg/m3
- mass density ([1]; x2 = 0.1306): 748.8 ± 0.35 kg/m3
- mass density ([1]; x2 = 0.2094): 762.7 ± 0.34 kg/m3
- mass density ([1]; x2 = 0.2809): 776.41 ± 0.34 kg/m3
- mass density ([1]; x2 = 0.3636): 794.01 ± 0.34 kg/m3
- mass density ([1]; x2 = 0.4749): 820.79 ± 0.35 kg/m3
- mass density ([1]; x2 = 0.5311): 835.93 ± 0.36 kg/m3
- mass density ([1]; x2 = 0.5989): 855.95 ± 0.36 kg/m3
- mass density ([1]; x2 = 0.6593): 875.61 ± 0.37 kg/m3
- mass density ([1]; x2 = 0.7261): 899.41 ± 0.38 kg/m3
- mass density ([1]; x2 = 0.8065): 931.92 ± 0.39 kg/m3
- mass density ([1]; x2 = 0.8662): 959.18 ± 0.41 kg/m3
- mass density ([1]; x2 = 0.9476): 1001.43 ± 0.45 kg/m3

SMILES: CCCCCCCCCCCC [dodecane] + Cc1cccc(O)c1
- mass density ([1]; x2 = 0): 738.63 ± 0.36 kg/m3

SMILES: Cc1cccc(O)c1 [3-methylphenol] + CCCCCCCCCCCC
- mass density ([1]; x1 = 0.1325): 756.67 ± 0.34 kg/m3
- mass density ([1]; x1 = 0.2055): 767.97 ± 0.33 kg/m3
- mass density ([1]; x1 = 0.3009): 784.51 ± 0.32 kg/m3
- mass density ([1]; x1 = 0.4009): 804.35 ± 0.31 kg/m3
- mass density ([1]; x1 = 0.6976): 883.71 ± 0.23 kg/m3
- mass density ([1]; x1 = 0.7987): 921.29 ± 0.2 kg/m3
- mass density ([1]; x1 = 0.895): 963.9 ± 0.15 kg/m3
- mass density ([1]; x1 = 1): 1022.02 ± 0.13 kg/m3

SMILES: CCCCCCCCCC [decane] + Cc1ccccc1O
- mass density ([1]; x2 = 0): 720.24 ± 0.42 kg/m3

SMILES: CCCCCCCCCCC [undecane]
- mass density [3]: 729.13 ± 0.36 kg/m3
- refractive index ([4]; 293.15 K): 1.4164 ± 0.0007

SMILES: Cc1cccc(O)c1 [3-methylphenol]
- mass density [3]: 1022.02 ± 0.13 kg/m3
- refractive index ([4]; 293.15 K): 1.5401 ± 0.0007

SMILES: CCCCCCCCC [nonane] + Cc1ccccc1O
- mass density ([1]; x2 = 0): 707.41 ± 0.38 kg/m3

SMILES: Cc1ccccc1O [2-methylphenol] + CCCCCCCCCCC
- mass density ([1]; x1 = 1): 1032.73 ± 0.49 kg/m3
- activity coefficient ([2]; 393.15 K): 4.47 ± 0.63
- activity coefficient ([2]; 413.15 K): 3.77 ± 0.53
- activity coefficient ([2]; 433.15 K): 2.85 ± 0.4

SMILES: Cc1cccc(O)c1 [3-methylphenol] + CCCCCCCCCC
- activity coefficient ([2]; 373.15 K): 7.79 ± 1.1
- activity coefficient ([2]; 403.15 K): 5.37 ± 0.75
- activity coefficient ([2]; 433.15 K): 4.26 ± 0.6

SMILES: CCCCCCCCC [nonane]
- mass density [3]: 707.41 ± 0.38 kg/m3
- refractive index ([4]; 293.15 K): 1.4058 ± 0.0007

SMILES: Cc1ccccc1O [2-methylphenol]
- mass density [3]: 1032.73 ± 0.49 kg/m3
- refractive index ([4]; 308.15 K): 1.5386 ± 0.0007

SMILES: CCCCCCCCCCC [undecane] + Cc1cccc(O)c1
- mass density ([1]; x2 = 0): 729.13 ± 0.36 kg/m3

SMILES: CCCCCCCCCC [decane]
- mass density [3]: 720.24 ± 0.42 kg/m3
- refractive index ([4]; 308.15 K): 1.4055 ± 0.0007

SMILES: Cc1ccccc1O [2-methylphenol] + CCCCCCCCC
- mass density ([1]; x1 = 0.0661): 719.58 ± 0.37 kg/m3
- mass density ([1]; x1 = 0.0684): 720.02 ± 0.37 kg/m3
- mass density ([1]; x1 = 0.1489): 736.5 ± 0.36 kg/m3
- mass density ([1]; x1 = 0.2085): 749.6 ± 0.35 kg/m3
- mass density ([1]; x1 = 0.2703): 764.08 ± 0.35 kg/m3
- mass density ([1]; x1 = 0.3994): 797.32 ± 0.35 kg/m3
- mass density ([1]; x1 = 0.4008): 797.69 ± 0.35 kg/m3
- mass density ([1]; x1 = 0.4688): 817.04 ± 0.36 kg/m3
- mass density ([1]; x1 = 0.5237): 833.66 ± 0.37 kg/m3
- mass density ([1]; x1 = 0.5941): 856.51 ± 0.36 kg/m3
- mass density ([1]; x1 = 0.6631): 880.76 ± 0.37 kg/m3
- mass density ([1]; x1 = 0.7323): 906.98 ± 0.38 kg/m3
- mass density ([1]; x1 = 0.8106): 939.53 ± 0.39 kg/m3
- mass density ([1]; x1 = 0.8674): 965.12 ± 0.41 kg/m3
- mass density ([1]; x1 = 0.9285): 994.76 ± 0.44 kg/m3
- mass density ([1]; x1 = 1): 1032.73 ± 0.49 kg/m3
- activity coefficient ([2]; 373.15 K): 5.84 ± 0.82
- activity coefficient ([2]; 393.15 K): 4.58 ± 0.64
- activity coefficient ([2]; 413.15 K): 3.8 ± 0.5

SMILES: CCCCCCCCC [nonane] + Cc1cccc(O)c1
- mass density ([1]; x2 = 0): 707.41 ± 0.38 kg/m3

SMILES: Cc1cccc(O)c1 [3-methylphenol] + CCCCCCCCCCC
- mass density ([1]; x1 = 0.1287): 748.52 ± 0.34 kg/m3
- mass density ([1]; x1 = 0.1853): 758.11 ± 0.33 kg/m3
- mass density ([1]; x1 = 0.3395): 787.84 ± 0.31 kg/m3
- mass density ([1]; x1 = 0.389): 798.63 ± 0.3 kg/m3
- mass density ([1]; x1 = 0.5024): 826.11 ± 0.29 kg/m3
- mass density ([1]; x1 = 0.6023): 854.21 ± 0.26 kg/m3
- mass density ([1]; x1 = 0.6949): 884.19 ± 0.23 kg/m3
- mass density ([1]; x1 = 0.8): 923.73 ± 0.19 kg/m3
- mass density ([1]; x1 = 0.9): 968.61 ± 0.14 kg/m3
- mass density ([1]; x1 = 1): 1022.02 ± 0.13 kg/m3
- activity coefficient ([2]; 393.15 K): 6.25 ± 0.88
- activity coefficient ([2]; 413.15 K): 4.9 ± 0.69
- activity coefficient ([2]; 433.15 K): 3.93 ± 0.55

SMILES: Cc1cccc(O)c1 [3-methylphenol] + CCCCCCCCC
- mass density ([1]; x1 = 0.1021): 726.54 ± 0.36 kg/m3
- mass density ([1]; x1 = 0.1998): 747.24 ± 0.34 kg/m3
- mass density ([1]; x1 = 0.302): 770.94 ± 0.33 kg/m3
- mass density ([1]; x1 = 0.4021): 796.76 ± 0.31 kg/m3
- mass density ([1]; x1 = 0.5): 825 ± 0.31 kg/m3
- mass density ([1]; x1 = 0.7): 892.22 ± 0.23 kg/m3
- mass density ([1]; x1 = 0.9): 974.43 ± 0.14 kg/m3
- mass density ([1]; x1 = 1): 1022.02 ± 0.13 kg/m3
- activity coefficient ([2]; 373.15 K): 9.21 ± 1.3
- activity coefficient ([2]; 393.15 K): 7.06 ± 0.99
- activity coefficient ([2]; 413.15 K): 5.96 ± 0.83
